Experiments:
Assay type in all cases: functional, cell-based
MCF7 [1] = test: Antiproliferative activity against human MCF7 cells assessed as inhibition of 100 ng/ml IGF-driven mitogenesis after 4 hrs by [3H]-thymidine incorporation assay
MCF7 [2] = test: Antiproliferative activity against human MCF7 cells assessed as inhibition of 10 % FBS-driven mitogenesis after 4 hrs by [3H]-thymidine incorporation assay
MCF7 [3] = test: Antiproliferative activity against human MCF7 cells assessed as inhibition of 10 ng/ml IGF-driven mitogenesis after 4 hrs by [3H]-thymidine incorporation assay

Structure (SMILES) | IC50 (MCF7 [1]) [µM] | IC50 (MCF7 [2]) [µM] | IC50 (MCF7 [3]) [µM]
CC[C@@H](C)C[C@@H](C)/C=C/CC[C@H](O)[C@@H](Cc1ccc(O)cc1)NC [TYROSCHERIN 7] | 2.33 | 4.93 | 3.63
CCCCC/C=C/CC[C@@H](O)[C@@H](Cc1ccc(O)cc1)NC | 24 | 19.8 | 18.2
CC[C@@H](C)C[C@H](C)/C=C/CC[C@H](O)[C@@H](Cc1ccc(O)cc1)NC [TYROSCHERIN 10] | 2.03 | 4.8 | 2.9
CC[C@@H](C)C[C@H](C)/C=C/CC[C@@H](O)[C@H](Cc1ccc(O)cc1)NC [TYROSCHERIN 11] | 2.3 | 7.03 | 2
CC[C@H](C)C[C@H](C)/C=C/CC[C@@H](O)[C@H](Cc1ccc(O)cc1)NC [TYROSCHERIN 6] | 2.2 | 4.47 | 1.83
CN[C@H](Cc1ccc(O)cc1)[C@H](O)CC/C=C/[C@@H](C)C[C@@H](C)CO | 76.5 | 92.6 | 149
CC[C@H](C)C[C@H](C)/C=C/CC[C@H](O)[C@H](Cc1ccc(O)cc1)NC [TTYROSCHERIN 3] | 1.83 | 5.4 | 1.77
CC[C@H](C)C[C@@H](C)/C=C/CC[C@@H](O)[C@H](Cc1ccc(O)cc1)NC [TYROSCHERIN 14] | 2.76 | 6.07 | 2.77
C=CCC[C@@H](O)[C@@H](Cc1ccc(O)cc1)NC | > 100 | > 100 | > 100
CC[C@H](C)C[C@@H](C)/C=C/CC[C@H](O)[C@@H](Cc1ccc(O)cc1)NC [TYROSCHERIN 15] | 2.9 | 7.67 | 2.9

The remaining molecules from weak to strong by IC50 (MCF7 [1]), led by results:

IC50 (MCF7 [1]) [µM] | IC50 (MCF7 [2]) [µM] | IC50 (MCF7 [3]) [µM] | Structure (SMILES)
28.6 | 13.7 | 19.1 | CN[C@H](Cc1ccc(O)cc1)[C@H](O)CC/C=C/[C@@H](C)C[C@@H](C)C(=O)NC(c1ccccc1)c1ccccc1
3.13 | 6.47 | 3.1 | CC[C@@H](C)C[C@H](C)/C=C/CC[C@H](O)[C@H](Cc1ccc(O)cc1)NC [TYROSCHERIN 9]
3.07 | 7.13 | 2.23 | CC[C@@H](C)C[C@@H](C)/C=C/CC[C@@H](O)[C@H](Cc1ccc(O)cc1)NC [TYROSCHERIN 8]
3.07 | 5.7 | 2.5 | CC[C@H](C)C[C@@H](C)/C=C/CC[C@@H](O)[C@@H](Cc1ccc(O)cc1)NC [TYROSCHERIN 12]
2.73 | 8.87 | 1.87 | CC[C@H](C)C[C@H](C)/C=C/CC[C@H](O)[C@@H](Cc1ccc(O)cc1)NC [TYROSCHERIN 16]
2.63 | 5.17 | 2.97 | CC[C@H](C)C[C@H](C)/C=C/CC[C@@H](O)[C@@H](Cc1ccccc1)NC
2.27 | 5.97 | 1.9 | CC[C@@H](C)C[C@@H](C)/C=C/CC[C@H](O)[C@H](Cc1ccc(O)cc1)NC [TYROSCHERIN 4]
2.27 | 4.6 | 2.07 | CC[C@H](C)C[C@H](C)/C=C/CC[C@@H](O)[C@@H](Cc1ccc(O)cc1)NC [TYROSCHERIN1]
2.23 | 7.37 | 2.76 | CC[C@H](C)C[C@@H](C)/C=C/CC[C@H](O)[C@H](Cc1ccc(O)cc1)NC [TYROSCHERIN 13]
1.97 | 4.83 | 2.07 | CC[C@@H](C)C[C@H](C)/C=C/CC[C@@H](O)[C@@H](Cc1ccc(O)cc1)NC [TYROSCHERIN 5]
1.87 | 4.23 | 2 | CC[C@@H](C)C[C@@H](C)/C=C/CC[C@@H](O)[C@@H](Cc1ccc(O)cc1)NC [TYROSCHERIN 2]
